Measurements reported in patent US9040715B2 (priority 2008, dated 2015).
Converted amounts (≈) assume the structure as drawn.

Key:
Huh7 or HepG2 cell line = assay: MTT assay (cytotoxicity); format: cell-based, human; details: 24 hours and 48 hours
Protocol: The MTT assay is a colorimetric assay that measures the reduction of yellow 3-(4,5-dimethylhiazol-2-yl)-2,5-diphenyl tetrazolium bromide (MTT) by mitochondrial succinate dehydrogenase. The MTT enters the cells and passes into the mitochondria where it is reduced to an insoluble, dark purple, formazan product. The cells are then solubilized with an organic solvent (e.g., isopropanol) and the released, solubilized formazan reagent is measured spectrophotometrically. Since reduction of MTT can only occur in metabolically active cells, the level of activity is a measure of the viability of the cells.
Cells of the Huh7 or HepG2 cell line were seeded in a 96 well plate. The plate was incubated overnight at 37° C. in a humidified incubator, 5% CO2. The test compounds were added to the plate. Different concentrations of drug were tested in triplicate along with a negative control. The final volume was adjusted to 100 μl per well. The plate was incubated overnight at 37° C. in a humidified incubator, 5% CO2. After 24 hours and 48 hours, MTT reagent (5 mg/ml, 10 μl/100 μl per well of the 96 well plate) was added and incubated at 37° C. for 3 hours. After 3 hours, 100 μl of the DMSO solution was added to each well and the plate was rocked at room temperature for 1 hour. The plate was then read on a plate reader at […].

Huh7 cells = assay: Neutral red uptake assay (cytotoxicity); format: cell-based, human
From the text: The neutral red uptake assay is a cytotoxicity test that is based on the ability of viable cells to incorporate and bind the supra-vital dye neutral red in the lysosomes. This weakly cationic dye penetrates cell membranes by non-ionic passive diffusion and concentrates in the lysosomes, where it binds by electrostatic hydrophobic bonds to anionic and phosphate groups of the lysosomal matrix. The dye is then extracted from the viable cells using an acidified ethanol solution, and the absorbance of the solubilized dye is read. When the cell dies or the pH gradient is reduced, the dye is not retained and consequently, the amount of retained dye is proportional to the number of viable cells. Most primary cells and cell lines can be used for this method. The HepG2 and Huh7, two human hepatoma cell lines, were used for this study. The cells were seeded in 96-well tissue culture plates and treated for 48 hours with the compounds. The plates were then incubated for 2 hours with a medium containing neutral red. The cells were subsequently washed, the dye was extracted in each well, and the absorbance was read using a spectrophotometer (FIG. 3 and Table 11).

[1] = system: Saccharomyces cerevisiae (YPH501); assay: Anti-fungal/anti-yeast activity: MIC50 (broth microdilution) and MFC; format: cell-based
Candida albicans (CAF-2) = assay: as above; format: cell-based
Protocol: (§1) Fluconazole, an ergosterol inhibitor, and the beta-1,3-glucan inhibitor micafungin served as controls (See Tables 1-8).
(§2) The minimum inhibitory concentrations resulting in 50% growth inhibition (MIC50) of […] Candida species (C. albicans, C. tropicalis and C. glabrata, C. lusitaniae, C. parapsilosis, and C. apicola) as well as Aspergillus fumigatus to a set of novel synthetic compounds was determined in accordance with the guidelines in CLSI document M27-A2 (Clinical and Laboratory Standards Institute; Wayne, Pa.). The total volume of cells and drug was 100 μL per microtiter well, and each drug was diluted in RPMI to achieve final concentrations of 0.2-100 μg/ml. Uninoculated cultures were used as a reference standard. Stock inoculum suspensions were prepared from 24 hour cultures on YPD (yeast extract/peptone/dextrose) media at 30° C. For MIC determinations, an inoculum of 1.0×10^3 cells of Candidia and 2.0×10^3 cells of Aspergillus per well were used, and cells in diluted drugs were prepared in RPMI-1640 medium. MICs were determined both visually and spectrophotometrically at 24 hours and 48 h at 550 nm using a micro plate reader. The MIC50 endpoint was measured as the lowest drug concentration resulting in a reduction of growth of 50% or more compared with growth of the control.
(§3) The minimum fungicidal concentrations (MFCs) were determined for each drug-isolate-medium combination as follows. After 48 hours of incubation, 100 μL of each drug-isolate-medium combination (2 plates) was subcultured onto YPD plates (100 μL of solution was spread over the YPD plate). […] The plates were then incubated at 30° C. for 48 hours.
(§4) The in vitro fungicidal activities (MFCs) were determined for each drug-isolate-medium combination as follows. After 48 hours of incubation, 10 μL each drug-isolate-medium combination was spotted onto YPD plates (10 μL of each well is spotted sequentially with positive and negative control wells). […] The plates were then incubated at 30° C. for 48 hours.

Candida lusitaniae = assay: as above; format: cell-based
Protocol: as §1, §2, §3, §4

Candidia parapsilosis = assay: as above; format: cell-based
Protocol: as §1, §2, §3, §4

Candida tropicalis = assay: as above; format: cell-based
Protocol: as §1, §2, §3, §4

Candida glabrata = assay: as above; format: cell-based
Protocol: as §1, §2, §3, §4

Candida apicola = assay: as above; format: cell-based
Protocol: as §1, §2, §3, §4

[2] = Saccharomyces cerevisiae (YPH501)

SMILES: O=c1c2ccccc2sn1Cc1nnc(Cc2ccccc2)o1 [Compound I-4]
- Toxicity to mammalian cell lines (MTT assay) (Huh7 or HepG2 cell line): minimally toxic
- Percentage Viability (Huh7 cells; 3.3 μg/mL (approx 1X MIC)): >100%
- Percentage Viability (Huh7 cells; 10 μg/mL (approx 3X MIC)): >100%
- Percentage Viability (Huh7 cells; 33 μg/mL (approx 10X MIC)): >100%
- Percentage Viability (Huh7 cells; 100 μg/mL (approx 30X MIC)): 75%
- MFC ([1]; Saccharomyces cerevisiae): 6 µg/mL (≈ 18.6 µM)
- Activity (fungicidal/fungistatic) [1, 2]: fungicidal (An MFC/MIC ratio of less than four indicates that the compound is fungicidal)
- Ratio MFC/MIC [1, 2]: 1
- MIC ([1]; Saccharomyces cerevisiae, read-out: MIC-50): 6 µg/mL (≈ 18.6 µM)
- Activity (fungicidal/fungistatic) (Candida albicans (CAF-2)): fungicidal (An MFC/MIC ratio of less than four indicates that the compound is fungicidal)
- MFC (Candida albicans (CAF-2)): 6.4 µg/mL
- Ratio MFC/MIC (Candida albicans (CAF-2)): 1
- MIC (Candida albicans (CAF-2); read-out: MIC-50): 6.4 µg/mL
- Activity (fungicidal/fungistatic) (Candida lusitaniae; Candida lusitaniae): fungicidal (An MFC/MIC ratio of less than four indicates that the compound is fungicidal)
- Ratio MFC/MIC (Candida lusitaniae; Candida lusitaniae): 1
- MFC (Candida lusitaniae; Clavispora lusitaniae): 12.5 µg/mL
- MIC (Candida lusitaniae; Clavispora lusitaniae, read-out: MIC-50): 12.5 µg/mL
- MFC (Candidia parapsilosis): 12.5 µg/mL
- Activity (fungicidal/fungistatic) (Candidia parapsilosis; Candidia parapsilosis): fungicidal (An MFC/MIC ratio of less than four indicates that the compound is fungicidal)
- Ratio MFC/MIC (Candidia parapsilosis; Candidia parapsilosis): 1
- MIC (Candidia parapsilosis; read-out: MIC-50): 12.5 µg/mL
- Activity (fungicidal/fungistatic) (Candida tropicalis): fungicidal (An MFC/MIC ratio of less than four indicates that the compound is fungicidal)
- MFC (Candida tropicalis): 12.5 µg/mL
- Ratio MFC/MIC (Candida tropicalis): 1
- MIC (Candida tropicalis; read-out: MIC-50): 12.5 µg/mL
- Activity (fungicidal/fungistatic) (Candida glabrata; Candida glabrata): fungicidal (An MFC/MIC ratio of less than four indicates that the compound is fungicidal)
- Ratio MFC/MIC (Candida glabrata; Candida glabrata): 1
- MFC (Candida glabrata; Nakaseomyces glabratus): 12.5 µg/mL
- MIC (Candida glabrata; Nakaseomyces glabratus, read-out: MIC-50): 12.5 µg/mL
- Activity (fungicidal/fungistatic) (Candida apicola; Candida apicola): fungicidal (An MFC/MIC ratio of less than four indicates that the compound is fungicidal)
- MIC-50 (Candida apicola; Candida apicola): 12.5 µg/mL
- Ratio MFC/MIC (Candida apicola; Candida apicola): 1
- MFC (Candida apicola; Starmerella apicola): 12.5 µg/mL
